Assay results taken from ChEMBL document CHEMBL1133973, “Asymmetric synthesis of BB-3497--a potent peptide deformylase inhibitor” (Bioorg Med Chem Lett, 2001).
pIC50: −log10 of the molar value.

Experiments:
[1] = target: Angiotensin-converting enzyme (Homo sapiens, UniProt P12821); assay: Compound was tested for its inhibitory activity against Angiotensin I converting enzyme
Matrilysin = target: T1, Matrilysin (Homo sapiens, UniProt P09237); assay: (§1) Inhibition of Matrix metalloprotease-7
T1 sequence (P09237 whole entry): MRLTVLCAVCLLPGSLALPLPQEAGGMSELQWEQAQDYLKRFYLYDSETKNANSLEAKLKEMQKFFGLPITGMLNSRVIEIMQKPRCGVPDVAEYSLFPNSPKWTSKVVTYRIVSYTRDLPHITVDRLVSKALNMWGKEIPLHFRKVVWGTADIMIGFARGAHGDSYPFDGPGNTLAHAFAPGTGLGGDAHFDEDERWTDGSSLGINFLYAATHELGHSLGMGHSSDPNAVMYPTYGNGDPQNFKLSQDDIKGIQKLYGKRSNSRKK

Stromelysin-1 = Stromelysin-1 (Homo sapiens, UniProt P08254); assay: Inhibition of Matrix metalloprotease-3
Sequence of Stromelysin-1 (P08254 whole entry): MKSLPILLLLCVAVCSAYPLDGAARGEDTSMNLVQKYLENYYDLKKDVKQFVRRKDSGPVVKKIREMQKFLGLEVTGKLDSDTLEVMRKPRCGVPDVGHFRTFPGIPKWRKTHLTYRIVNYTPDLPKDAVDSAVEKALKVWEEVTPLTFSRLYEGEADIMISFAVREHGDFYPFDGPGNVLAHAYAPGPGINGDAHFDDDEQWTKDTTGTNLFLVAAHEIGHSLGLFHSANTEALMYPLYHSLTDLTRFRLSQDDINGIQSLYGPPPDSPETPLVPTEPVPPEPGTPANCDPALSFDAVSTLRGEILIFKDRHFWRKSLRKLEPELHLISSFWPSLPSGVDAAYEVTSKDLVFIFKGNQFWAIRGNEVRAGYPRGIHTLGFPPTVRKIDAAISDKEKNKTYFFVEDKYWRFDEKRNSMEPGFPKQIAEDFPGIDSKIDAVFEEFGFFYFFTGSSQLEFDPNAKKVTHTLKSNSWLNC

Interstitial collagenase = target: T2, Interstitial collagenase (Homo sapiens, UniProt P03956); assay: Inhibition of human Matrix metalloprotease-1
T2 sequence (P03956 whole entry): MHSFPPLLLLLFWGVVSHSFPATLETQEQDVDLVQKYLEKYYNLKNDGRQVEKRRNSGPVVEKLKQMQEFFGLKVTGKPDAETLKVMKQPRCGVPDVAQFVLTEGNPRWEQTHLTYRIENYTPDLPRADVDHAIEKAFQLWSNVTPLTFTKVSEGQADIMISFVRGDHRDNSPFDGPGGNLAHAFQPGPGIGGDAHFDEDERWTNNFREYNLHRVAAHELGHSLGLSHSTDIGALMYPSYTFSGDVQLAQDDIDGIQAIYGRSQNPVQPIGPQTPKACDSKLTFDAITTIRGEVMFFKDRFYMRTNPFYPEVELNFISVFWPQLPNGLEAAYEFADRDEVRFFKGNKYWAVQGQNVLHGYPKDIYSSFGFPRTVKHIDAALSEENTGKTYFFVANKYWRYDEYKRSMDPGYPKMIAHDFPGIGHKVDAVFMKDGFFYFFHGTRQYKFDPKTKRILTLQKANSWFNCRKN

[2] = target: 72 kDa type IV collagenase (Homo sapiens, UniProt P08253); assay: Inhibition of Matrix metalloprotease-2
Sequence of 72 kDa type IV collagenase (P08253 whole entry): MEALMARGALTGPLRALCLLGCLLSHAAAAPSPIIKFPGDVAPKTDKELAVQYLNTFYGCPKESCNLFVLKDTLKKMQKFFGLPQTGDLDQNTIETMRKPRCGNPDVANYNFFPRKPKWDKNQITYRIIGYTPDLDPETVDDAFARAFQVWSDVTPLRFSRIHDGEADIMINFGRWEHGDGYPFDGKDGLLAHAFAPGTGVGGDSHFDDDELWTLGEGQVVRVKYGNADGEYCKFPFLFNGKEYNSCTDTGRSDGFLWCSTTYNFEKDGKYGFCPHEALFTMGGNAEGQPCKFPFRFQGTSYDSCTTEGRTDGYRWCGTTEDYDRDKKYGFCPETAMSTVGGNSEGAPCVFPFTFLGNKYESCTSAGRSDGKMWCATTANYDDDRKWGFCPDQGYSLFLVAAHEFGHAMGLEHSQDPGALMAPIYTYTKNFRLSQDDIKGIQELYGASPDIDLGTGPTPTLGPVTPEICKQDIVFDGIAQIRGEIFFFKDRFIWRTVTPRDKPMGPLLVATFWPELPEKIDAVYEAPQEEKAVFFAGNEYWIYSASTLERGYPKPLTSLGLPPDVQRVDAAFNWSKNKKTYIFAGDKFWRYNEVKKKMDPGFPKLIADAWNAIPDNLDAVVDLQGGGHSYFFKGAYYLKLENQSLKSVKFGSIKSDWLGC

Neprilysin = Neprilysin (Homo sapiens, UniProt P08473); assay: The compound was evaluated in vitro for the inhibition of Neutral endopeptidase
Sequence of Neprilysin (P08473 whole entry): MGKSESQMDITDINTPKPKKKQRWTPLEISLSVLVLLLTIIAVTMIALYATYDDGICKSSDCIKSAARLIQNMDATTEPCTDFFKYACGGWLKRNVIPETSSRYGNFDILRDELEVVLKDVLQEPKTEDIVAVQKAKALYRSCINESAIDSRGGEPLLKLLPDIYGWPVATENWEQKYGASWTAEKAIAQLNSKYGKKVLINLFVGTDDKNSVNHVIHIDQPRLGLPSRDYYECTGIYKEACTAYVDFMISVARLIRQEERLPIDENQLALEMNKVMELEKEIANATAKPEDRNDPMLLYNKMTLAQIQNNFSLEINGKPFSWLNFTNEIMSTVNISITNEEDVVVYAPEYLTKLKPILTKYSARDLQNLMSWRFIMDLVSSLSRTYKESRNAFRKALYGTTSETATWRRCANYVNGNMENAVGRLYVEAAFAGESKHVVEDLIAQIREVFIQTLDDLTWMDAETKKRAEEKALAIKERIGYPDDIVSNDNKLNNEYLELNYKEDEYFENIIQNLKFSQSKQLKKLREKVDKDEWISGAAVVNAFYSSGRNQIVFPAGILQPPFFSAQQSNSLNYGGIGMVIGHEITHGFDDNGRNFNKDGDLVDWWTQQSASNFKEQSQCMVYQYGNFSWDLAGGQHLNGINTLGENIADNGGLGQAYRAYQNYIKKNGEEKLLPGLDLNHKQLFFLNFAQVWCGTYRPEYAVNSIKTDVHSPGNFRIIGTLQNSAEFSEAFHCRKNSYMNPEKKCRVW

[3] = target: T3, Matrilysin (Homo sapiens) (UniProt P09237); assay: as §1; details: concentration not given here
T3 sequence (whole entry): T1 sequence (P09237 whole entry)

Sequence of Angiotensin-converting enzyme (P12821 whole entry): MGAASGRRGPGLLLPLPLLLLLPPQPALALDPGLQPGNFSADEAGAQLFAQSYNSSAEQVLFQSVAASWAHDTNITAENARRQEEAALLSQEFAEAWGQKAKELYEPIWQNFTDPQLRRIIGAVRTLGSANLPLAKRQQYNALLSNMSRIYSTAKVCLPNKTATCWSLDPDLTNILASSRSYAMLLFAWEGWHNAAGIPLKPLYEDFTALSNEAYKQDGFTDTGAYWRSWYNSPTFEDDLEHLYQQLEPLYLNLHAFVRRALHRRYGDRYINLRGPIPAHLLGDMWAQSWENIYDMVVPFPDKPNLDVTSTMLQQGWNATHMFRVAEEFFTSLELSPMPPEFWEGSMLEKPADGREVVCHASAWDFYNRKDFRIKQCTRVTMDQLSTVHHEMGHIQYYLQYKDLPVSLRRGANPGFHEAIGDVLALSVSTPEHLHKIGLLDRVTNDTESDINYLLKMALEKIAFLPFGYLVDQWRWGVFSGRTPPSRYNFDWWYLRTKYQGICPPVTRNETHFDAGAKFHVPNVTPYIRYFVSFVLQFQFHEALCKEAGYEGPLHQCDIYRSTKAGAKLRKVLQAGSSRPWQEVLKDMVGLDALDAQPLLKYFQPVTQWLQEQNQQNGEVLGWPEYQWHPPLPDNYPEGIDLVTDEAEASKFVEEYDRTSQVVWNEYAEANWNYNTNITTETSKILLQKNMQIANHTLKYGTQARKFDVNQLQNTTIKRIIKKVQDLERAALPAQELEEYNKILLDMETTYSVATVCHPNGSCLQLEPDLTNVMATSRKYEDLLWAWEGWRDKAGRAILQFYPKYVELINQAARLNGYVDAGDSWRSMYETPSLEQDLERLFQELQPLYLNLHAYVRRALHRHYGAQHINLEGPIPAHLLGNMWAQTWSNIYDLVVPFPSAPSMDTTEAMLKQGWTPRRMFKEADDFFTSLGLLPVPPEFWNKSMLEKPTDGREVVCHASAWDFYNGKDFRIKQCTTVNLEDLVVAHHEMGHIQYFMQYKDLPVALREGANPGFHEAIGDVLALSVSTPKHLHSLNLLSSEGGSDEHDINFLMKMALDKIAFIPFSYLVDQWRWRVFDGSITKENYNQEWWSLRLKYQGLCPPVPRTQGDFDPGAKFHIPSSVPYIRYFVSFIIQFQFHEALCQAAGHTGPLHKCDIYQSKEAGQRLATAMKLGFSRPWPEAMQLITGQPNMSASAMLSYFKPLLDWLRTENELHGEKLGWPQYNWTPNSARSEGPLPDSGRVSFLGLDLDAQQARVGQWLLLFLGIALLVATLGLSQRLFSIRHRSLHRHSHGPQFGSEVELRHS

| Structure (SMILES) | pIC50 [1] | pIC50 (Matrilysin) | pIC50 (Stromelysin-1) | pIC50 (Interstitial collagenase) | pIC50 [2] | pIC50 (Neprilysin) | inhibition [3] [%] |
| --- | --- | --- | --- | --- | --- | --- | --- |
| CCCC[C@H](CN(O)C=O)C(=O)N[C@H](C(=O)N(C)C)C(C)(C)C | < 4.00 | < 4.00 | < 4.00 | 5.70 | 4.82 | 4.30 | – |
| CCCCC(CN(O)C=O)C(=O)N[C@H](C(=O)N(C)C)C(C)(C)C (stereo partly specified) | – | < 4.00 | < 4.00 | < 4.00 | < 4.00 | – | – |
| CCCCC[C@H](CC(=O)NO)C(=O)N[C@H](C(=O)N1CCC[C@H]1CO)C(C)C [ACTINONIN] | < 4.00 | – | 5.22 | 5.96 | 5.52 | 5.17 | 60 |
